Test results reported in patent US20080200467A1, “SOLUBLE EPOXIDE HYDROLASE INHIBITORS” (Arete Therapeutics, Inc., priority 2006, published 2008).

Tested on: soluble epoxide hydrolase (sEH)
Assay: Fluorescent Assay for Mouse and Human Soluble Epoxide Hydrolase (CMNPC substrate)
Assay type: biochemical
Description: Fluorescent Assay for Mouse and Human Soluble Epoxide Hydrolase Recombinant mouse sEH (MsEH) and human sEH (HsEH) were produced in a baculovirus expression system as previously reported. Grant et al., J. Biol. Chem., 268:17628-17633 (1993); Beetham et al., Arch. Biochem. Biophys., 305:197-201 (1993). The expressed proteins were purified from cell lysate by affinity chromatography. Wixtrom et al., Anal. Biochem., 169:71-80 (1988). Protein concentration was quantified using the Pierce BCA assay using bovine serum albumin as the calibrating standard. The preparations were at least 97% pure as judged by SDS-PAGE and scanning densitometry. They contained no detectable esterase or glutathione transferase activity which can interfere with the assay. The assay was also evaluated with similar results in crude cell lysates or homogenate of tissues. The IC50s for each inhibitor were according to the following procedure: [drawing 218] […] Jones P. D. et. al.; Analytical Biochemistry 2005; 343: pp. 66-75) Bis/Tris HCl 25 mM pH 7.0 containing 0.1 mg/mL of BSA (buffer […] at 0.25 mM in DMSO. Mother solution of enzyme in buffer A (Mouse sEH at 6 μg/mL and Human sEH at 5 μg/mL). Inhibitor dissolved in DMSO at the appropriate concentration. In a black 96 well plate, fill all the wells with 150 μL of buffer A. Add 2 μL of DMSO in well A2 and A3, and then add 2 μL of inhibitor solution in A1 and A4 through A12. Add 150 μL of buffer A in row A, then mix several time and transfer 150 μL to row B. Repeat this operation up to row H. The 150 μL removed from row H is discarded. Add 20 μL of buffer A in column 1 and 2, then add 20 μL of enzyme solution to column 3 to 12. Incubate the plate for 5 minutes in the plate reader at 30° C. During incubation prepare the working solution of substrate by mixing 3.68 mL of buffer A (4×0.920 mL) with 266 μL (2×133 μL) of substrate solution). At t=0, add 30 μL of working substrate solution with multi-channel pipette labeled “Briggs 303” and start the reading ([S]final: 5 μM). Read with ex: 330 nm (20 nm) and em: 465 nm (20 nm) every 30 second for 10 minutes. The velocities are used to analyze and calculate the IC50s. Tables 4-6 show the activity of compounds when tested with the assay at 50, 500, 5000, 50000, and 500000 nM.

| % Inhibition (Concentration 5000 nM) | SMILES | other results |
| --- | --- | --- |
| 86% | O=C(O)CCCCCCCCCCCNC(=O)C(O)CCC12CC3CC(CC(C3)C1)C2 (stereo not shown) [Compound 165, 12-(4-Adamantan-1-yl-2-hydroxybutanamido)dodecanoic acid] | – |
| 59% | O=C(O)CCCCCCCCCCCNC(=O)C(O)Cc1ccc(C(F)(F)F)cc1 (stereo not shown) [Compound 164, 12-(2-Hydroxy-3-(4-(trifluoromethyl)phenyl)propanamido)dodecanoicacid] | – |
| 73% | O=C(NCc1ccc(OCc2ccccc2)cc1)C(O)CCC12CC3CC(CC(C3)C1)C2 (stereo not shown) [Compound 146, N-(4-(Benzyloxy)benzyl)-4-adamantyl-2-hydroxybutanamide] | – |
| 90% | O=C(O)CCCCCCCCCCCNC(=O)C(O)CC12CC3CC(CC(C3)C1)C2 (stereo not shown) [Compound 161, 12-(3-Adamantan-1-yl-2-hydroxypropanamido)dodecanoic acid] | – |
| 98% | O=C(NC1CCN(S(=O)(=O)c2ccc(Cl)cc2)CC1)C(O)CCC12CC3CC(CC(C3)C1)C2 (stereo not shown) [Compound 152, N-(1-(4-Chlorophenylsulfonyl)piperidin-4-yl)-4-adamantyl-2-hydroxybutanamide] | – |
| 93% | O=C(NCCc1ccc(OCc2ccccc2)cc1)C(O)CC12CC3CC(CC(C3)C1)C2 (stereo not shown) [Compound 147, N-(4-(Benzyloxy)phenethyl)-3-adamantan-1-yl-2-hydroxypropanamide] | – |
| 91% | O=C(NCCc1ccc(OCc2ccccc2)cc1)C(O)CCC1CCCCC1 (stereo not shown) [Compound 141, N-(4-(Benzyloxy)phenethyl)-4-cyclohexyl-2-hydroxybutanamide] | – |
| 95% | O=C(NCCc1ccc(F)cc1)C(O)CCC12CC3CC(CC(C3)C1)C2 (stereo not shown) [Compound 145, 4-Adamantan-1-yl-N-(4-fluorophenethyl)-2-hydroxybutanamide] | – |
| 79% | CNS(=O)(=O)c1ccc(CCNC(=O)C(O)CCC23CC4CC(CC(C4)C2)C3)cc1 (stereo not shown) [Compound 156, 4-Adamantan-1-yl-2-hydroxy-N-(4-(N-methylsulfamoyl)phenethyl)butanamide] | – |

The next lines start with the compound.

| SMILES | % Inhibition (Concentration 5000 nM) | other results |
| --- | --- | --- |
| Cc1ccc(S(=O)(=O)N2CCC(NC(=O)C(O)CC34CC5CC(CC(C5)C3)C4)CC2)cc1 (stereo not shown) [Compound 128, 3-Adamantan-1-yl-2-hydroxy-N-[1-(toluene-4-sulfonyl)-piperidin-4-yl]-propionamide] | – | % Inhibition (Concentration 500 nM): 89% |
| O=C(NC12CC3CC(CC(C3)C1)C2)C(O)Cc1ccc(OCc2ccccc2)cc1 (stereo not shown) [Compound 107, N-Adamantan-1-yl-3-(4-benzyloxy-phenyl)-2-hydroxy-propionamide] | 91% | – |
| O=C(NC1CCN(S(=O)(=O)c2cccc(C(F)(F)F)c2)CC1)C(O)CC12CC3CC(CC(C3)C1)C2 (stereo not shown) [Compound 133, 3-Adamantan-1-yl-2-hydroxy-N-(1-(3-(trifluoromethyl)phenylsulfonyl)piperidin-4-yl)propanamide] | – | % Inhibition (Concentration 500 nM): 83% |
| COC(=O)CCCCCCCCCCCNC(=O)C(O)c1ccc(C(F)(F)F)cc1 (stereo not shown) [Compound 158, Methyl 12-(2-hydroxy-2-(4-(trifluoromethyl)phenyl)acetamido)dodecanoate] | – | % Inhibition (Concentration 500 nM): 72% |
| Cc1ccc(S(=O)(=O)N2CCC(NC(=O)C(O)C34CC5CC(CC(C5)C3)C4)CC2)cc1 (stereo not shown) [Compound 124, 2-Adamantan-1-yl-2-hydroxy-N-[1-(toluene-4-sulfonyl)-piperidin-4-yl]-acetamide] | – | % Inhibition (Concentration 500 nM): 80% |
| O=C(NC12CC3CC(CC(C3)C1)C2)C(=O)c1cccc(OCc2ccccc2)c1 [Compound 3, N-Adamantan-1-yl-2-(3-benzyloxy-phenyl)-2-oxo-acetamide] | – | % Inhibition (Concentration 50000 nM): 96% |
| O=C(NC1CCN(S(=O)(=O)c2ccc(Cl)cc2)CC1)C(O)C12CC3CC(CC(C3)C1)C2 (stereo not shown) [Compound 149, N-(1-(4-Chlorophenylsulfonyl)piperidin-4-yl)-2-adamantan-1-yl-2-hydroxyacetamide] | – | % Inhibition (Concentration 50 nM): 95% |
| Cc1ccc(S(=O)(=O)N2CCC(CNC(=O)C(O)CC34CC5CC(CC(C5)C3)C4)CC2)cc1 (stereo not shown) [Compound 122, 3-Adamantan-1-yl-2-hydroxy-N-[1-(toluene-4-sulfonyl)-piperidin-4-ylmethyl]-propionamide] | – | % Inhibition (Concentration 500 nM): 88% |
| COc1ccc(C(O)C(=O)NCC23CC4CC(CC(C4)C2)C3)cc1 (stereo not shown) [Compound 120, N-Adamantan-1-ylmethyl-2-hydroxy-2-(4-methoxy-phenyl)-acetamide] | 79% | – |
| Cc1ccc(S(=O)(=O)N2CCC(NC(=O)C(=O)c3ccc(C(F)(F)F)cc3)CC2)cc1 [Compound 9, 2-Oxo-N-[1-(toluene-4-sulfonyl)-piperidin-4-yl]-2-(4-trifluoromethyl-phenyl)-acetamide] | – | % Inhibition (Concentration 50000 nM): 72% |
| Cc1ccc(S(=O)(=O)N2CCC(NC(=O)C(=O)C34CC5CC(CC(C5)C3)C4)CC2)cc1 [Compound 18, 2-Adamantan-1-yl-2-oxo-N-[1-(toluene-4-sulfonyl)-piperidin-4-yl]-acetamide] | 93% | – |
| Cc1ccc(S(=O)(=O)N2CCC(NC(=O)C(O)CC3CCCCC3)CC2)cc1 (stereo not shown) [Compound 135, 3-Cyclohexyl-2-hydroxy-N-(1-tosylpiperidin-4-yl)propanamide] | 89% | – |
| O=C(Nc1cccc(OCc2ccccc2)c1)C(O)CCc1ccc(C(F)(F)F)cc1 (stereo not shown) [Compound 131] | 98% | – |
| COc1ccc(C(=O)C(=O)NCC23CC4CC(CC(C4)C2)C3)cc1 [Compound 22] | 78% | – |
| Cc1ccc(S(=O)(=O)N2CCC(NC(=O)C(=O)C3CCCCC3)CC2)cc1 [Compound 10, 2-Cyclohexyl-2-oxo-N-[1-(toluene-4-sulfonyl)-piperidin-4-yl]-acetamide] | 70% | – |
| O=C(Nc1ccc(OCc2ccccc2)cc1)C(O)CCc1ccc(C(F)(F)F)cc1 (stereo not shown) [Compound 130] | 89% | – |
| O=C(NCCN1CCOCC1)c1ccc(NC(=O)C(O)c2ccc(C(F)(F)F)cc2)cc1 (stereo not shown) [Compound 102, 4-[2-Hydroxy-2-(4-trifluoromethyl-phenyl)-acetylamino]-N-(2-morpholin-4-yl-ethyl)-benzamide] | – | % Inhibition (Concentration 50000 nM): 63% |
| Cc1ccc(S(=O)(=O)N2CCC(NC(=O)C(O)CCc3ccc(C(F)(F)F)cc3)CC2)cc1 (stereo not shown) [Compound 136, 2-Hydroxy-N-(1-tosylpiperidin-4-yl)-4-(4-(trifluoromethyl)phenyl)butanamide] | 83% | – |
| O=C(Nc1ccc(-n2ccnc2)cc1)C(O)c1ccc(C(F)(F)F)cc1 (stereo not shown) [Compound 109, 2-Hydroxy-N-(4-imidazol-1-yl-phenyl)-2-(4-trifluoromethyl-phenyl)-acetamide] | – | % Inhibition (Concentration 500000 nM): 80% |
| O=C(Nc1ccc(-n2ccnc2)cc1)C(=O)C12CC3CC(CC(C3)C1)C2 [Compound 21] | 93% | – |
| CCCC(=O)N1CCC(NC(=O)C(=O)c2ccc(C(F)(F)F)cc2)CC1 [Compound 14, N-(1-Butyryl-piperidin-4-yl)-2-oxo-2-(4-trifluoromethyl-phenyl)-acetamide] | – | % Inhibition (Concentration 50000 nM): 77% |
| O=C(NCc1ccc(OCc2ccccc2)cc1)C(O)CC12CC3CC(CC(C3)C1)C2 (stereo not shown) [Compound 125, 3-Adamantan-1-yl-N-(4-benzyloxy-benzyl)-2-hydroxy-propionamide] | 98% | – |
| O=C(Nc1ccc(-n2ccnc2)cc1)C(=O)c1ccc(C(F)(F)F)cc1 [Compound 8, N-(4-Imidazol-1-yl-phenyl)-2-oxo-2-(4-trifluoromethyl-phenyl)-acetamide] | 85% | – |
| O=C(Nc1ccc(OCc2ccccc2)cc1)C(O)CC12CC3CC(CC(C3)C1)C2 (stereo not shown) [Compound 117, 3-Adamantan-1-yl-N-(4-benzyloxy-phenyl)-2-hydroxy-propionamide] | – | % Inhibition (Concentration 50000 nM): 81% |
| O=C(Nc1cccc(OCc2ccccc2)c1)C(O)CC12CC3CC(CC(C3)C1)C2 (stereo not shown) [Compound 115, 3-Adamantan-1-yl-N-(3-benzyloxy-phenyl)-2-hydroxy-propionamide] | – | % Inhibition (Concentration 500 nM): 89% |
| O=C(Nc1ccc(C(=O)NCCN2CCOCC2)cc1)C(=O)c1ccc(C(F)(F)F)cc1 [Compound 2, N-(2-Morpholin-4-yl-ethyl)-4-[2-oxo-2-(4-trifluoromethyl-phenyl)-acetylamino]-benzamide] | – | % Inhibition (Concentration 50000 nM): 82% |
| COC(=O)CCCCCCCCCCCNC(=O)C(O)CC12CC3CC(CC(C3)C1)C2 (stereo not shown) [Compound 160, Methyl 12-(3-adamantan-1-yl-2-hydroxypropanamido)dodecanoate] | – | % Inhibition (Concentration 500 nM): 81% |
| COC(=O)CCCCCCCCCCCNC(=O)C(O)CCc1ccc(C(F)(F)F)cc1 (stereo not shown) [Compound 162, Methyl 12-(2-hydroxy-4-(4-(trifluoromethyl)phenyl)butanamido)dodecanoate] | – | % Inhibition (Concentration 500 nM): 78% |
